In patent publication US20240307374A1, “FORMULATION OF FURIN INHIBITOR FOR INHALATION” (BP ASSET V, INC., priority 2021, published 2024):

Assays:
Type in all cases: physicochemical
[1] = Solution stability in citrate buffers; details: 28 days
Description: The stability samples were stored under 5° C. and 25° C. for 28 days, respectively. After 28 days storage, the stability samples were taken out for HPLC test and pH test.
Waters H-class UPLC (ultra-performance liquid chromatography) was used for purity, solubility, assay and stability test. Detailed method is shown in Table 9-22, Table 9-23 and Table 9-24.

[2] = Solid state stability; design: key to FC (form change): N: The form was not changed; details: for Purity: initial purity 99.62%
Description: Approximately 30 mg of each solid sample was added to an HPLC vial (sealed by Parafilm© and poked with several pinholes) and then stored at 25° C./60% RH, 40° C./75% RH and 60° C. for 28 days.
After 1/3/7/14/28 days storage, solids were taken out for HPLC and XRPD to evaluate chemical and physical stability, respectively.

[3] = Grinding stability; details: ~30 mg ground manually in a mortar for about 5 minutes
[4] = ~1 mg/mL in 10 mM citrate buffer (pH 4.3), 5° C.
[5] = ~1 mg/mL in 10 mM citrate buffer (pH 4.3), 25° C.
[6] = ~40 mg/mL in 100 mM citrate buffer (pH 4.1), 5° C.
[7] = ~40 mg/mL in 100 mM citrate buffer (pH 4.1), 25° C.

Structure (SMILES): CC(=O)NCC1CCN(Cc2cc(Oc3ccc(N4CCN(CCC(=O)O)CC4)nc3)nc(-c3cc(Cl)cc(Cl)c3)c2)CC1 [Freeform Type D]
- degradation ([1]; 40 mg/mL in 100 mM citrate buffer, 5° C. and 25° C.): No significant degradation
- Appearance [1, 4]: yellow solution
- Assay [1, 4]: 68.4%
- Purity [1, 4]: 89.0 Area %
- pH [1, 4]: 4.7
- Appearance [1, 5]: cloudy and yellow
- Assay [1, 5]: 11.6%
- Purity [1, 5]: 78.9 Area %
- pH [1, 5]: 4.6
- Appearance [1, 6]: became cloudy
- Assay [1, 6]: 95.0%
- Purity [1, 6]: 99.7 Area %
- pH [1, 6]: 4.8
- Appearance [1, 7]: remained a clear solution
- Assay [1, 7]: 98.9%
- Purity [1, 7]: 99.5 Area %
- pH [1, 7]: 4.9
- degradation or form change (HPLC, XRPD) ([2]; 25° C./60% RH, 40° C./75% RH and 60° C. for 28 days): No significant degradation or form change
- FC (form change) ([2]; 25° C./60% RH, 28 days): N
- Purity ([2]; 25° C./60% RH, 28 days): 99.6 area %
- FC (form change) ([2]; 40° C./75% RH, 1 day): N
- Purity ([2]; 40° C./75% RH, 1 day): 99.69 area %
- FC (form change) ([2]; 40° C./75% RH, 3 days): N
- Purity ([2]; 40° C./75% RH, 3 days): 99.56 area %
- FC (form change) ([2]; 40° C./75% RH, 7 days): N
- Purity ([2]; 40° C./75% RH, 7 days): 99.59 area %
- FC (form change) ([2]; 40° C./75% RH, 14 days): N
- Purity ([2]; 40° C./75% RH, 14 days): 99.69 area %
- FC (form change) ([2]; 40° C./75% RH, 28 days): N
- Purity ([2]; 40° C./75% RH, 28 days): 99.73 area %
- FC (form change) ([2]; 60° C., 1 day): N
- Purity ([2]; 60° C., 1 day): 99.74 area %
- FC (form change) ([2]; 60° C., 3 days): N
- Purity ([2]; 60° C., 3 days): 99.57 area %
- FC (form change) ([2]; 60° C., 7 days): N
- Purity ([2]; 60° C., 7 days): 99.51 area %
- FC (form change) ([2]; 60° C., 14 days): N
- Purity ([2]; 60° C., 14 days): 99.62 area %
- FC (form change) ([2]; 60° C., 28 days): N
- Purity ([2]; 60° C., 28 days): 99.66 area %

Structure (SMILES): CC(=O)NCC1CCN(Cc2cc(Oc3ccc(N4CCN(CCC(=O)O)CC4)nc3)nc(-c3cc(Cl)cc(Cl)c3)c2)CC1 [Freeform Type A]
- crystallinity after grinding (XRPD) [3]: decreased after grinding
